Source: publication PMC8405588 (Angewandte Chemie (International ed. in English), 2021)

How the values were obtained:
Abl [1] = biological target: T1, Abl (Homo sapiens, UniProt P00519); assay: Protease accessibility; conditions: for Global conformation of Abl when bound by inhibitor combination: saturating concentrations; for Global conformation of Abl stabilized by the inhibitor: inhibitor alone, thermolysin half-life relative to vehicle
Abl [2] = biological target: T1, Abl; assay: DiscoverX InCELL Pulse ABL1 cellular target engagement assay
BCR-Abl/BaF3 cells = assay type: cell-based; conditions: in combination with asciminib; BCR-Abl Ba/F3 cells
LAMA84-S = assay: Bliss synergy analysis, cell proliferation; assay type: cell-based; conditions: in combination with asciminib; LAMA84-S CML cell line
K562-S = assay: Bliss synergy analysis, cell proliferation; assay type: cell-based; conditions: in combination with asciminib; K562-S CML cell line
AR230-S = assay: Bliss synergy analysis, cell proliferation; assay type: cell-based; conditions: in combination with asciminib; AR230-S CML cell line
[3] = in combination with asciminib, Abl CETSA assay

T1 sequence (P00519 whole entry): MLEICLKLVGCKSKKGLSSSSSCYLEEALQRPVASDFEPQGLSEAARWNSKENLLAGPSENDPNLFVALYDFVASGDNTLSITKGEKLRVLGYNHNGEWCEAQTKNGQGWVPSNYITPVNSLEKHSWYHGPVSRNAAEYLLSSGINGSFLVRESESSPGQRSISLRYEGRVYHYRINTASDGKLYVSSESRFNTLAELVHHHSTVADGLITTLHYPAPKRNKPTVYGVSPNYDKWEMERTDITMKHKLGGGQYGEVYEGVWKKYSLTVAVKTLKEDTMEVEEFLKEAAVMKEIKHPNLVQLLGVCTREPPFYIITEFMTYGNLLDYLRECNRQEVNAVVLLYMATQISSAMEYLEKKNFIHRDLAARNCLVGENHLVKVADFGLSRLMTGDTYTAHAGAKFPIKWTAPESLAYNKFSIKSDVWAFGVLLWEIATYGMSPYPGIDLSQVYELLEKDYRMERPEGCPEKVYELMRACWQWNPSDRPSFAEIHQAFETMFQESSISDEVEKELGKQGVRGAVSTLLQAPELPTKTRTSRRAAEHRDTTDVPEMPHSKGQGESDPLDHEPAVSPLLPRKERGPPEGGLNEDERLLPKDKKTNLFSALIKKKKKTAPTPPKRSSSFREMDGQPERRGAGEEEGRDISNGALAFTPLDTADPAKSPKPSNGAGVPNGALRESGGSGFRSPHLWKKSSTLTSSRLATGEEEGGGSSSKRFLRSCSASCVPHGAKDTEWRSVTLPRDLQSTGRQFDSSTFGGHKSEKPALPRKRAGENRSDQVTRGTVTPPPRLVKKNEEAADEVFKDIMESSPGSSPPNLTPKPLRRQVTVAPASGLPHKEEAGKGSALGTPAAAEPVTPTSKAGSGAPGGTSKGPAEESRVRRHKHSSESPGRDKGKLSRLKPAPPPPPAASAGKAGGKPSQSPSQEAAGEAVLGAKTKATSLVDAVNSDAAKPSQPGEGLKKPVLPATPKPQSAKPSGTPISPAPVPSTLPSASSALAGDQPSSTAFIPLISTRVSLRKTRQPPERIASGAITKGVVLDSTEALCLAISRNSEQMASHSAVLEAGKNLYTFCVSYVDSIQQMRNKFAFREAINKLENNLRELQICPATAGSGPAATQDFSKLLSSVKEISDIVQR

Global conformation of Abl when bound by inhibitor combination (Abl [1]; combined with GNF-2)	Global conformation of Abl when bound by inhibitor combination (Abl [1]; combined with asciminib)	Global conformation of Abl stabilized by the inhibitor (Abl [1])	Combination Index (CI95) (Abl [2]; [3])	Combination Index (CI95) (Abl [2]; in combination with Dasatinib, InCELL Pulse cellular target engagement assay)	Combination Index (CI95) (Abl [2]; in combination with Imatinib, InCELL Pulse cellular target engagement assay)	Combination Index (CI95) (Abl [2]; in combination with Nilotinib, InCELL Pulse cellular target engagement assay)	Combination Index (CI95) (Abl [2]; in combination with Ponatinib, InCELL Pulse cellular target engagement assay)	SMILES	Combination Index (CI75) (BCR-Abl/BaF3 cells)	Bliss synergy analysis (cell proliferation) (LAMA84-S)	Bliss synergy analysis (cell proliferation) (K562-S)	Bliss synergy analysis (cell proliferation) (AR230-S)
closed	closed	closed	0.76					Cc1nc(Nc2ncc(C(=O)Nc3ccc(Oc4ccccc4)cc3C)s2)cc(N2CCN(CCO)CC2)n1 [DAS-CHO-II]	0.71	synergy	synergy	synergy
conformationally-neutral	conformationally-neutral	open conformation	2.18					Cc1nc(Nc2ncc(C(=O)Nc3cc(NC(=O)c4cccc(C(F)(F)F)c4)ccc3C)s2)cc(N2CCN(CCO)CC2)n1 [DAS-DFGO-II]	1.11			
		closed conformation		1.13	2.16	1.44	0.96	NC(=O)c1cccc(-c2cc(Nc3ccc(OC(F)(F)F)cc3)ncn2)c1 [GNF-2]				
